Laboratory results from US6221670A, “Methods to identify β-amyloid reducing agents” (Scios Inc., priority 1997, dated 2001).
Where a SMILES comes first, the peptide text is derived from it. The star is where a group is joined. Cbz = O=C(OCc1ccccc1)*

Legend:
[1] = tested on: β-amyloid 1-40; assay: β-amyloid 1-40 secretion by transgenic mouse hippocampal organotypic slice culture (sandwich ELISA); format: cell-based; details: 72 h; 25 μM to 400 μM, 3-day conditioning period, FIG. 4; read-out: IC50 for β-amyloid production by transgenic mouse hippocampal organotypic slice culture
Experimental: Preparation of cultures. Ten day old mouse pups transgenic for the 751 amino acid isoform of human β-amyloid precursor protein (β-APP),programmed for neural expression by the neuron specific enolase promoter were used as tissue source for hippocampal organotypic slice cultures. Cultures were prepared as for rat brain slice organotypic cultures described in Example 1.
Preperation of cultures. Hippocampal organotypic slice cultures were prepared as described in example 2, from 10 day old mice transgenic for the 751 amino acid isoform of human β-amyloid precursor protein (β-APP), programmed for neural expression by the neuron specific enolase promoter and maintained in culture for 10 days.
Preparation of cultures. Hippocampal organotypic slice cultures are prepared from 10 day old mice transgenic for the 751 amino acid isoform of human β-amyloid precursor protein (β-APP), programmed for neural expression by the neuron specific enolase promoter as described in Example 2, and maintained in culture for 6 weeks.
Detailed description of FIG. 4. Hippocampal organotypic slice cultures were prepared from mice transgenic for β-APP751. […] Data points shown were calculated by first taking the mean of duplicate ELISA values for each well, and then calculating the mean of the values for the duplicate treatment wells. […]

[2] = toxicity in transgenic mouse hippocampal organotypic slice culture by visual inspection; format: cell-based, mice transgenic for β-APP751; details: 25 μM to 400 μM, not toxic until this concentration, read-out: concentration at which toxicity became apparent by visual inspection
Experimental: Assessment of β-amyloid inhibitor activity and toxicity. Cultures are observed visually approximately every other day. Prior to the commencement of compound testing, on day 18 in culture, a three day test period was initiated in which media was conditioned by the untreated cultures. This media was collected and assayed for β-amyloid 1-40 and 1-42 levels using sensitive ELISAs. Organotypic cultures were then washed with media twice, and incubated for a further 3 day conditioning period in media supplemented with 25 μM to 400 μM MDL 28170, a protease inhibitor shown to inhibit total β-amyloid production in cell culture with an IC50 of 100 μM. MDL 28170 was applied from 100×stock solutions prepared in DMSO. Control culture received only DMSO. After conditioned media was collected at […], organotypic cultures were washed with serum free media twice and incubated for an additional 24 hours in serum free media in the continued presence of MDL 28170. This conditioned media was assayed for lactate dehydrogenase (LDH) activity. LDH is a ubiquitous cytosolic enzyme released into conditioned media only by unhealthy cells and is an index of viability and toxicity. High levels of LDH activity in serum require measurements to be made in serum free conditioned media. […]

[3] = toxicity in transgenic mouse hippocampal organotypic slice culture by LDH assay of serum free conditioned media; format: cell-based, mice transgenic for β-APP751; details: 25 μM to 400 μM, 3 days, then additional 24 hours in serum free media, not toxic until this concentration, read-out: concentration at which toxicity became apparent by LDH assay
Experimental: Detailed description of FIG. 4. Hippocampal organotypic slice cultures were prepared from mice transgenic for β-APP751. On day 21 in vitro, organotypic cultures were washed with media twice, and duplicate wells were incubated for a 3-day conditioning period in media supplemented with 25 μM to 400 μM MDL 28170, a protease inhibitor shown to inhibit total β-amyloid production in cell culture with an IC50 of 100 μM. MDL 28170 was applied from 100×stock solutions prepared in DMSO. Control culture received only DMSO. Conditioned media was collected at day 24 and assayed in duplicate for β-amyloid 1-40 using a sandwich ELISA. Organotypic cultures were washed with serum free media twice and incubated for an additional 24 hours in serum free media in the continued presence of MDL 28170. This conditioned media was assayed for lactate dehydrogenase (LDH) activity. LDH is a ubiquitous cytosolic enzyme released into conditioned media only by unhealthy cells and is an index of viability and toxicity. High levels of LDH activity in serum require measurements to be made in serum free conditioned media. Data points shown were calculated by first taking the mean of duplicate ELISA values for each well, and then calculating the mean of the values for the duplicate treatment wells.
Assessment of β-amyloid inhibitor activity and toxicity. Cultures are observed visually approximately every other day. […]

[4] = tested on: total β-amyloid production; details: cited from earlier work

With `CC(C)[C@H](NC(=O)OCc1ccccc1)C(=O)N[C@H](C=O)Cc1ccccc1` [MDL 28170] (Cbz-Val-Phe-aldehyde) the IC50 [1] was 100 µM, the MCC [2] was 400 µM and the MCC [3] was 400 µM. The IC50 ([4]; cell culture (monotypic cells), previously shown, read-out: IC50 for inhibition of total β-amyloid production in cell culture) was 100 µM and the “reversibility of MDL activity on cultured monotypic cells” value ([4]; cultured monotypic cells) was “reversible”.
